Data on 83 compounds can be found in PubChem BioAssay AID686998 (Broad Institute, 2013).

SMILES strings stand for the structures. Values joined by “and” are separate entries in the source; they are usually repeats but may differ in a detail not shown here. Equal entries are not always repeated. Results filed as inconclusive are left out. Active and inactive are the calls of the source.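 Rule for the calls: active = falling signal with fitted half-maximal potency no higher than twice the top valid tested dose; inconclusive = poor fit quality, or flat fit spanning -70% to -30%; inactive = potency over limit, rising signal, or flat fit inside 30%.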

The subject of this assay is Cryptococcus neoformans growth, Alamar Blue, 24 h. Briefly: fungal growth arrest, C. neoformans – Alamar Blue, cherry-picks, dose response (AID 686998). A general note: Resazurin is reduced to fluorescent resorufin, in cell work by metabolically active cells.
As for `Cc1ccc2c(C)c(C(=O)N3CCN(Cc4ccccn4)CC3)oc2c1C`, the IC50 (as a rule, the concentration that gives 50% inhibition) is 67.4 µM.
Then `CC(NC(=O)COc1ccccc1Cl)c1ccccc1` (stereo not drawn), with 0.88 µM; and `Cc1ccc(NC(=S)Nc2ccc(Cl)c(Cl)c2)c(OC(F)F)c1`, with 20.6 µM.
On to `CNC[C@@H]1Oc2ccc(NS(=O)(=O)c3ccc(Cl)cc3)cc2C(=O)N([C@H](C)CO)C[C@H]1C`, for which the IC50 is 46.4 µM.
Then `O=C(NC(=S)Nc1ccccc1N1CCCC1)c1ccccc1[N+](=O)[O-]`, with 1.42 µM; and `COc1cc(CO)cc(I)c1O[C@H]1C=C(C(=O)NCCO)C[C@@H](N(CC2CCCCC2)C(=O)c2cc3ccccc3oc2=O)[C@@H]1O`, with 0.479 µM.
Then `CC(C)NC(=O)Nc1ccc2c(c1)C(=O)N([C@H](C)CO)C[C@H](C)[C@H](CN(C)Cc1ccncc1)OCCCC[C@H](C)O2`, with 54.6 µM; and `Cc1noc(C)c1NC(=O)N(C)C[C@H]1Oc2ccc(NC(=O)C3CC3)cc2CC(=O)N([C@@H](C)CO)C[C@H]1C`, with > 70 µM (inactive).
Then `COC(=O)C1=C(C)N(Cc2ccc(Cl)cc2)C(=S)NC1c1ccccc1` (stereo not drawn), with 10.8 µM; and `S=C(Nc1cccc(Cl)c1)Nc1ccccc1Oc1ccccc1`, with 13.2 µM; and `CCCCN1C(=S)NC[C@@H]1Cc1ccccc1`, with 20.9 µM.
In the case of `CC(C)CC#Cc1cnc2c(c1)C(=O)N([C@@H](C)CO)C[C@@H](C)[C@@H](CN(C)C(=O)c1cccc(F)c1)O2`, the IC50 was 45.8 µM.
Take `Cc1cccc(-c2ccc([C@@H]3[C@@H](CO)N4CCCCN(S(=O)(=O)c5ccccc5C)C[C@@H]34)cc2)c1`: the IC50 is 2.62 µM.
Regarding `CNC[C@@H]1OCCCC[C@@H](C)Oc2ccc(NC(=O)NC(C)C)cc2C(=O)N([C@@H](C)CO)C[C@H]1C`, the IC50 was > 70 µM (inactive).
Consider `COc1cccc(S(=O)(=O)Nc2ccc3c(c2)[C@H]2C[C@@H](CC(=O)NC4CCCCC4)O[C@@H](CO)[C@H]2O3)c1`, for which the IC50 is 6.96 µM.
Then `COCCN1C(=O)CCC1(C)C(=O)Nc1c(C)cccc1C` (stereo not drawn), with 30.2 µM; and `CCc1ccc(C(=O)NC(=S)Nc2ccccc2N2CCOCC2)cc1`, with 9.06 µM.
Then `C[C@H](CO)N1C[C@H](C)[C@H](CN(C)S(=O)(=O)c2cn(C)cn2)Oc2ncc(/C=C/c3ccccc3)cc2C1=O`, with 60.1 µM; and `CO[C@@H]1CN(C)C(=O)c2ccc(NS(=O)(=O)c3ccc(Oc4ccccc4)cc3)cc2OC[C@H](C)NC[C@H]1C`, with 3.78 µM.
Then `COC(=O)C1=C(C)N(CC(C)C)C(=S)NC1c1ccc(Cl)cc1` (stereo not drawn), with 9 µM and 18 µM; and `O=C(NC(=S)Nc1cc(Cl)ccc1N1CCOCC1)c1ccccc1[N+](=O)[O-]`, with 7.86 µM; and `C[C@@H]1CN([C@H](C)CO)S(=O)(=O)c2ccc(-c3ccccc3)cc2O[C@H]1CN(C)C(=O)C1CCCCC1`, with 65.5 µM.
Take `C[C@@H]1CN([C@@H](C)CO)S(=O)(=O)c2ccc(C3=CCCC3)cc2O[C@@H]1CN(C)Cc1ccccc1F`: the IC50 is 31.3 µM.
In the case of `CN1C[C@@H]2C(c3ccc(C(F)(F)F)cc3)C3(c4ccccc4)CC2(C3)[C@H]1c1ccccc1` (stereo partly drawn), the IC50 was 11.2 µM.
The value for `CCOC(=O)CNC(=O)CSc1ncnc2c1cnn2-c1ccc(Cl)cc1` was 67.1 µM; that for `O=C(C1CCOCC1)N1CC[C@@H]2[C@@H](CO)Nc3ccc(Br)cc3[C@@H]21` was > 70 µM (inactive); that for `Cc1noc(C)c1NC(=O)N(C)C[C@@H]1Oc2ccc(NC(=O)NC(C)C)cc2CC(=O)N([C@@H](C)CO)C[C@@H]1C` was > 70 µM (inactive).
Then `S=C(NCCc1cccc(Cl)c1)NC1CCCCC1`, with 6.69 µM; and `C/C=C/c1ccc([C@@H]2[C@@H](C#N)N(S(=O)(=O)c3cccc(F)c3)[C@@H]2CO)cc1`, with 33.6 µM.
On to `C[C@H](NC(=O)C[C@@H]1C=C[C@H](NC(=O)CN2CCOCC2)[C@H](CO)O1)c1ccccc1`, for which the IC50 is 44.8 µM.
Then `CCCC[C@@H]1CNC(=S)N1CCc1cccc(F)c1`, with 1.29 µM; and `Fc1ccccc1NC(=S)NCCc1cccc(Cl)c1`, with 16 µM.
The value for `COC(=O)C1=C(C)N(Cc2ccc(Cl)cc2)C(=S)NC1c1cccc(F)c1` (stereo not drawn) was 20.4 µM; that for `COC(=O)C1=C(C)N(Cc2ccccc2)C(=S)N[C@H]1c1cccc(F)c1` was 13.7 µM.
As to `Cc1ccc(C(=O)NC(=S)Nc2ccccc2N2CCCC2)cc1[N+](=O)[O-]`, the half-maximal inhibitory concentration (IC50) is 0.463 µM.
The value for `Cc1cccc(C)c1NC(=O)C1(C)CCC(=O)N1CCCn1ccnc1` (stereo not drawn) was less than 0.26 µM.
Then `C[C@@H]1CN([C@@H](C)CO)C(=O)c2cc(-c3cncnc3)cnc2O[C@H]1CN(C)C(=O)CN1CCOCC1`, with 42.4 µM.
Then `COC(=O)C1=C(C)N(Cc2ccccc2)C(=S)NC1c1ccc(Br)cc1` (stereo not drawn), with 10.2 µM; and `COC(=O)C1=C(C)N(Cc2ccc(Cl)cc2)C(=S)NC1c1ccc(OC)cc1` (stereo not drawn), with 22.6 µM; and `Fc1ccc(CNC(=S)NCc2cccc(Cl)c2)cc1`, with 12.3 µM.
For `COc1ccc(CN(C)C[C@@H]2OCCCC[C@@H](C)Oc3ccc(NC(=O)c4ccccc4)cc3C(=O)N([C@H](C)CO)C[C@@H]2C)cc1`, the IC50 is > 70 µM (inactive).
With `O=C(c1cccc(F)c1)N1C[C@H]2[C@@H](c3ccccc31)[C@@H](CO)N2Cc1cocn1`, the IC50 is > 70 µM (inactive).
For the compound `CCCCNC(=S)N/N=C/c1ccc(C#N)cc1`, the IC50 was 2.73 µM.
In the case of `Cc1noc(C)c1NC(=O)N(C)C[C@H]1OCCCC[C@@H](C)Oc2ccc(NC(=O)NC(C)C)cc2C(=O)N([C@H](C)CO)C[C@H]1C`, the IC50 is > 70 µM (inactive).
Then `CCc1nc(N2CCCCC2C)c2oc3ccccc3c2n1` (stereo not drawn), with 17.6 µM; and `CCC(=O)Nc1ccc2c(c1)OC[C@H](C)N(C(=O)c1ccc(F)cc1)C[C@@H](C)[C@@H](OC)CN(C)C2=O`, with 48.2 µM; and `COC(=O)C1=C(C)N(Cc2ccc(F)cc2)C(=S)NC1c1cccc(Br)c1` (stereo not drawn), with 6.82 µM.
Then `CCOc1ccc(C(=O)NC(=S)Nc2ccccc2N2CCCCC2)cc1[N+](=O)[O-]`, with 3.11 µM; and `O=C(C[C@@H]1CC[C@@H]2[C@H](COC[C@@H](O)CN2C(=O)Nc2ccc(Cl)cc2)O1)NC1Cc2ccccc2C1`, with 6.79 µM; and `Cc1ccc2nc(C)c3c(c2c1)OC(C(C)(Cl)Br)C3` (stereo not drawn), with 19 µM.
On to `O=C1CCC(C(=O)Nc2ccc([N+](=O)[O-])cc2)N1` (stereo not drawn), for which the IC50 is 10.1 µM.
The value for `C[C@H]1CN([C@@H](C)CO)C(=O)c2cc(C#CC3(O)CCCC3)cnc2O[C@@H]1CN(C)Cc1cccnc1` was > 70 µM (inactive); that for `CCC(C)c1ccc(NC(=S)N2CCN(c3ccccn3)CC2)cc1` (stereo not drawn) was 17.5 µM; that for `COc1cccc(C(=O)NC(=S)Nc2ccccc2N2CCOCC2)c1` was 21.2 µM.
Regarding `O=C(NC(=S)NCC1COc2ccccc2O1)c1ccccc1` (stereo not drawn), the IC50 was 11 µM.
With `CO[C@H]1CN(C)C(=O)c2ccc(NC(=O)NC(C)C)cc2OC[C@@H](C)NC[C@H]1C`, the 50% inhibitory concentration (IC50) is 1.08 µM.
Turning to `COc1ccc(CN(C)C[C@@H]2Oc3ccc(NC(=O)C4CC4)cc3C(=O)N([C@@H](C)CO)C[C@H]2C)cc1`, the half-inhibitory concentration (IC50) was 43.2 µM.
The value for `CN1c2ccc(-c3ccc(F)cc3)cc2[C@H]2[C@H](CCN2S(=O)(=O)c2cccc(F)c2)[C@H]1CO` was 6.07 µM; that for `CCC(=O)Nc1ccc2c(c1)C(=O)N(C)C[C@H](OC)[C@@H](C)CN[C@H](C)CO2` was > 70 µM (inactive); that for `CN1c2ccc(Br)cc2[C@@H]2[C@@H](CCN2C(=O)Cc2cccnc2)[C@@H]1CO` was 2.15 µM.
The value for `Cc1ccc(NC(=S)NCc2ccc(Cl)cc2)c(OC(F)F)c1` was 10.2 µM; that for `CC(C)COc1ccc(CNC(=S)NCc2ccccc2)cc1` was 5.43 µM.
As for `COC(=O)C1=C(C)N(Cc2ccc(Br)cc2)C(=S)NC1c1cccc(Cl)c1` (stereo not drawn), the IC50 was 5.98 µM.
Take `CC(NC(=O)COc1ccccc1-c1ccccc1)c1ccccc1` (stereo not drawn): the IC50 is 2.53 µM.
For `COc1cc(NC(=O)CN2CCN(S(=O)(=O)c3ccc(C(C)C)cc3)CC2)cc(OC)c1`, the half-maximal inhibitory concentration (IC50) is 59.4 µM.
As to `CC12CC3CC(C)(C1)CC(C(=O)NC(=S)N1CCCCC1)(C3)C2`, the IC50 was 15.5 µM.
Then `CCOc1ccc(CNC(=S)NCc2ccc(OCC)cc2)cc1`, with 8.87 µM; and `Cc1ccc(S(=O)(=O)N2CC[C@@H]3[C@H]2c2cc(-c4ccccc4F)ccc2N[C@@H]3CO)cc1`, with 6.14 µM.
`O=C(NC(=S)NCC1COc2ccccc2O1)c1ccc(Cl)cc1` (stereo not drawn): the 50% inhibitory concentration (IC50) was 6.31 µM.
With `Cc1cc(C)c2nc(N3CCN(C(=O)c4cccs4)CC3)sc2c1`, the IC50 was 21.9 µM.
The value for `CNC(=O)CN(c1ccc(OC)cc1)S(=O)(=O)c1ccc(F)cc1` was > 70 µM (inactive); that for `O=C(Nc1ccc(N2CCOCC2)cc1N1CCOCC1)c1cccc([N+](=O)[O-])c1` was 67 µM; that for `CNC[C@H]1Oc2ncc(C#CCC(C)C)cc2C(=O)N([C@H](C)CO)C[C@H]1C` was > 70 µM (inactive).
Then `COC(=O)C1=C(C)N(Cc2ccc(Br)cc2)C(=S)NC1c1cccc(Br)c1` (stereo not drawn), with 6.53 µM; and `Cc1ccccc1NC(=S)NC(=O)CCc1ccccc1`, with 5.62 µM; and `COc1ccccc1/C=N/NC(=S)NCc1ccco1`, with 12.8 µM.
Then `COC(=O)C1=C(C)N(Cc2ccc(F)cc2)C(=S)NC1c1ccccc1` (stereo not drawn), with 29.4 µM.
For `C[C@@H]1CN([C@H](C)CO)C(=O)c2ccccc2-c2ccccc2CO[C@H]1CN(C)S(=O)(=O)c1cccc(C#N)c1`, the IC50 is 66.7 µM.
Then `O=C(C[C@H]1CC[C@H]2[C@@H](COC[C@H](O)CN2C(=O)Nc2ccc3c(c2)OCO3)O1)N1CCN(c2ccccc2)CC1`, with > 70 µM (inactive); and `C[C@H](CO)N1C[C@H](C)[C@@H](CN(C)S(=O)(=O)c2cn(C)cn2)Oc2c(NC(=O)Nc3ccccc3)cccc2C1=O`, with > 70 µM (inactive).
On to `N#C[C@H]1[C@@H](c2ccc(C#CCC3CCCC3)cc2)[C@@H](CO)N1C(=O)c1ccccn1`, for which the IC50 is 25.9 µM.
The value for `CO[C@@H]1CN(C)C(=O)c2ccc(NC(C)=O)cc2OC[C@@H](C)N(C(=O)Cc2cccnc2)C[C@H]1C` was > 60 µM (inactive); that for `C[C@H](CO)N1C[C@H](C)[C@H](CN(C)CC2CCCCC2)Oc2c(NS(C)(=O)=O)cccc2C1=O` was 56.4 µM.
